Data set [1] concerns the target T1, β-galactosidase (Escherichia coli, UniProt P00722).
T1 construct: purchased Roche; host or cells: E. coli overproducer
The data set is described as follows: Enzymatic cleavage study (HPLC) with β-galactosidase. It counts as biochemical, e.coli. To be noted: 100 μM prodrug in PBS, 2 units β-galactosidase, 37°C. How it is done:
To test the desired, selective enzymatic cleavage and further evaluate compound stability, solutions of each prodrug were prepared in phosphate-buffered saline (PBS), and either β-galactosidase or β-glucosidase were added. After incubation times of 24 h and 48 h, samples from each mixture were analyzed by HPLC to gain insight into the relative amounts of both the remaining prodrug and the liberated 1.
Fig. 3 HPLC traces after 48 h of enzyme incubation for the prodrugs of this study as indicated at their respective peaks. The identity of the employed enzyme is indicated on the left of the chromatogram and the identity of each observed compound is shown above the respective peak. Chromatograms are shown with an offset of 2 along the ordinate to facilitate comparison.
(§1) The three following enzymes were employed in this study:
(§2) (1) esterase from porcine liver sourced from Sigma Aldrich as dry powder with an activity of 229.4 units/mg protein as indicated by the supplier for the received lot; (2) β-glucosidase from almonds sourced from Sigma Aldrich as dry powder with an activity of 11.7 U/mg as indicated by the supplier for the received lot
(§3) (3) β-galactosidase from e.coli overproducer sourced from Roche as prepared aqueous solution with an activity of 1500 units/mL protein as indicated by the supplier for the […]
(§4) As indicated for each experiment below, the respective enzyme was dissolved in PBS buffer and diluted as appropriate to produce the desired concentration.
25 mM stock solutions in DMSO were prepared for 2a, 2b, 3a, and 3b. From these stock solutions, 4 µL was added to 1 mL of PBS buffer, respectively, in separate glass vials, achieving a final concentration of 100 µM. The vials were then assigned to one of three experimental groups: control, negative, and positive.
In the control group, no enzyme was introduced. The negative group received 2 units of esterase enzyme, while the positive group received 2 units of the target enzyme as indicated, either β-galactosidase or β-glucosidase. All vials were incubated in a 37°C water bath for 48 hours. Aliquots were extracted from each vial after 24 and 48 hours, respectively, and analyzed as described below.
The extracted aliquots were analyzed via high-performance liquid chromatography (HPLC) with ultraviolet (UV) detection at a wavelength of 254 nm. Chromatograms were plotted with an offset of 1 along the y-axis to allow clear intercomparison of the data across the […]

Data set [2] deals with T1, β-galactosidase. The data set is described as follows: AIE fluorescence study of release of 1 with β-galactosidase. The class given is biochemical, e.coli. To be noted: for Relative emission intensity at 480 nm: 20 μM in water; for Fluorescence emission / release of 1 (in words): water, three enzyme units of β-galactosidase, 0 h and 24 h. On the procedure:
(§5) The AIE fluorescence properties of 1 were used as a means of supporting the above conclusion. The emission of all glycosylated prodrugs is suppressed. Thus, solutions of each prodrug were prepared in water, and three enzyme units of β-galactosidase or β-glucosidase, as appropriate, were added to the prodrugs. Each mixture was then analysed by fluorescence spectroscopy after 24 h of incubation. […] This finding is consistent with a lack of enzymatic activation.
Fig. 4 Relative emission intensity at 480 nm (*for 3b at 420 nm) of evaluated compounds at 20 μM before and after incubation with 3 U of the appropriate enzyme. TEXT PRINTED IN THE PICTURE: 1: Relative Emission 480 nm: 100% (Before incubation); Relative Emission 480 nm: 100% (After 24 h incubation) | 2a: Relative Emission 480 nm: 0% (Before incubation); Relative Emission 480 nm: 0% (After 24 h incubation) | 2b: Relative Emission 480 nm: 0% (Before incubation); Relative Emission 480 nm: 1% (After 24 h incubation) | 3a: Relative Emission 480 nm: 1% (Before incubation); Relative Emission 480 nm: 33% (After 24 h incubation) | 3b*: Relative Emission 480 nm: 1% (Before incubation); Relative Emission 480 nm: 11% (After 24 h incubation) […]
Figure S25: Fluorescence spectra for excitation (blue) and emission (green) of 1 at a concentration of 20 μM in water.
Figure S26: Fluorescence spectra for excitation (blue) and emission (green) of 2a at a concentration of 20 μM in water before (left) and after (right) incubation with 3 units of b-galactosidase for 24 h. […]
Figure S28: Fluorescence spectra for excitation (blue) and emission (green) of 3a at a concentration of 20 μM in water before (left) and after (right) incubation with 3 units of β-galactosidase for 24 h. […]

Data set [3] can be described thus: Stability in PBS without enzyme (HPLC control group). It counts as physicochemical. To be noted: 100 μM in PBS, no enzyme, 37°C, up to 48 h. On the procedure: Additional selectivity control experiments were conducted, in which either no enzyme or an “incorrect” enzyme such as an esterase was used (see Fig. S13–S24 in the ESI ^†).
as §1, §2, §3, §4
25 mM stock solutions in DMSO were prepared for 2a, 2b, 3a, and 3b. From these stock solutions, 4 µL was added to 1 mL of PBS buffer, respectively, in separate glass vials, achieving a final concentration of 100 µM. […]
In the control group, no enzyme was introduced. […] Aliquots were extracted from each vial after 24 and 48 hours, respectively, and analyzed as described below.
The extracted aliquots were analyzed via high-performance liquid chromatography (HPLC) with ultraviolet (UV) detection at a wavelength of 254 nm. […]

Another data set relates to β-glucosidase. Put plainly: AIE fluorescence study of release of 1 with β-glucosidase. It counts as biochemical, almonds. The conditions noted are these: for Relative emission intensity at 480 nm (for 3b at 420 nm): 20 μM in water; for Fluorescence emission / release of 1 (in words): water, three enzyme units of β-glucosidase, 0 h and 24 h. How it is done: as §5
Fig. 4 Relative emission intensity at 480 nm (*for 3b at 420 nm) of evaluated compounds at 20 μM before and after incubation with 3 U of the appropriate enzyme. TEXT PRINTED IN THE PICTURE: 1: Relative Emission 480 nm: 100% (Before incubation); Relative Emission 480 nm: 100% (After 24 h incubation) | 2a: Relative Emission 480 nm: 0% (Before incubation); Relative Emission 480 nm: 0% (After 24 h incubation) | 2b: Relative Emission 480 nm: 0% (Before incubation); Relative Emission 480 nm: 1% (After 24 h incubation) | 3a: Relative Emission 480 nm: 1% (Before incubation); Relative Emission 480 nm: 33% (After 24 h incubation) | 3b*: Relative Emission 480 nm: 1% (Before incubation); Relative Emission 480 nm: 11% (After 24 h incubation)
Figure S25: Fluorescence spectra for excitation (blue) and emission (green) of 1 at a concentration of 20 μM in water. […]
Figure S27: Fluorescence spectra for excitation (blue) and emission (green) of 2b at a concentration of 20 μM in water
before (left) and after (right) incubation with 3 units of b-glucosidase for 24 h. […]
Figure S29: Fluorescence spectra for excitation (blue) and emission (green) of 3b at a concentration of 20 μM in water
before (left) and after (right) incubation with 3 units of β-glucosidase for 24 h. […]

The mark [4] stands for this setting: after 24 h incubation with 3 U β-galactosidase.
Setting [5] is: before incubation with 3 U β-galactosidase.
Setting [6] is: after 24 h incubation with 3 U β-glucosidase.
Where [7] appears, read: before incubation with 3 U β-glucosidase.

The results in this text go back to paper PMC12177571, “Glycosidase-activated prodrugs of a cytotoxic iron chelator for targeted cancer therapy” (RSC Medicinal Chemistry, 2025).

Molecules are shown by their SMILES.

T1 sequence (P00722 2-1024): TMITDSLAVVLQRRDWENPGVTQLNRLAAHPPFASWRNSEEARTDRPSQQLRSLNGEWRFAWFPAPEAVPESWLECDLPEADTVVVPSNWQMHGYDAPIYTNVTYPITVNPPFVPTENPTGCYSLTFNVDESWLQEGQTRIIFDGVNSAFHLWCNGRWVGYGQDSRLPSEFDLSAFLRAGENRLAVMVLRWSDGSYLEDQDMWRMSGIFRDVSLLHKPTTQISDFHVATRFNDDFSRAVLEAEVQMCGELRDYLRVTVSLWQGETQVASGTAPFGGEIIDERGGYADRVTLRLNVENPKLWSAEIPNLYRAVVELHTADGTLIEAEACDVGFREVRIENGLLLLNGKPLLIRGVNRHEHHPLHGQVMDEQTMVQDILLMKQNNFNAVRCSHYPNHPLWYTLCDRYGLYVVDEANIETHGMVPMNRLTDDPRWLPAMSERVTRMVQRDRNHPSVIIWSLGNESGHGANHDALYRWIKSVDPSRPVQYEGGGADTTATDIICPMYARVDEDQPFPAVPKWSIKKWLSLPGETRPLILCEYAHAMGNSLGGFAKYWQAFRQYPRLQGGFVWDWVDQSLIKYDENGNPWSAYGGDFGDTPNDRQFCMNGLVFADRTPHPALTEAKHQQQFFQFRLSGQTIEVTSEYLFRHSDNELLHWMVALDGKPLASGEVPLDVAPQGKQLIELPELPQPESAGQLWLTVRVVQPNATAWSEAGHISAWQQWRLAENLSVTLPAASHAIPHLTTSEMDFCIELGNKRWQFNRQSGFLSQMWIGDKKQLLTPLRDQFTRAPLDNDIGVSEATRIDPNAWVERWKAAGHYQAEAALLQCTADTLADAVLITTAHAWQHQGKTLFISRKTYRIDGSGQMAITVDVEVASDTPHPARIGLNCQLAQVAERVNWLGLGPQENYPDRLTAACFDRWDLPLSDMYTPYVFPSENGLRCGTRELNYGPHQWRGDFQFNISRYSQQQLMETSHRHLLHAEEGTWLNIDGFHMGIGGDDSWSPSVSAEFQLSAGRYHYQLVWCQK

Take `OC[C@H]1OC(Oc2ccccc2-c2nc(-c3ccccc3O)nn2-c2ccccc2)[C@H](O)[C@@H](O)[C@H]1O` (stereo partly drawn) [2a]: the “Release of 1 (HPLC)” value at β-galactosidase [1] (24 h) and at β-galactosidase [1] (48 h) was “no release of 1 was observed” in each case. Moreover, the “Relative emission intensity at 480 nm” value at β-galactosidase [2] (setting [4]) and at β-galactosidase [2] (setting [5]) was 0% throughout. The “Fluorescence emission / release of 1 (in words)” value (“Fluorescence emission / release” below) on β-galactosidase [2] is “no fluorescence emission was observed”. For the same compound, the “Stability in PBS / aqueous media” value in data set [3] is “good stability in aqueous media”.

As to `OC[C@H]1OC(Oc2ccccc2-c2nc(-c3ccccc3O)nn2-c2ccccc2)[C@H](O)[C@@H](O)[C@@H]1O` (stereo partly drawn) [2b], the “Relative emission intensity at 480 nm (for 3b at 420 nm)” value in the data set on β-glucosidase (setting [6]) was 1%; in the data set on β-glucosidase (setting [7]) it was 0%. In addition, the “Fluorescence emission / release” value in the data set with β-glucosidase was “no fluorescence emission was observed”. In data set [3], the “Stability in PBS / aqueous media” value is “good stability in aqueous media”.

With `OC[C@H]1OC(Oc2ccc(COc3ccccc3-c3nc(-c4ccccc4O)nn3-c3ccccc3)cc2)[C@H](O)[C@@H](O)[C@H]1O` (stereo partly drawn) [3a], the “Release of 1 (HPLC)” value on β-galactosidase [1] (24 h) is “significant release of 1”; on β-galactosidase [1] (48 h), “further increased”. Further, the “Relative emission intensity at 480 nm” value at β-galactosidase [2] (setting [4]) is recorded as 33%; on β-galactosidase [2] (setting [5]), 1%. In addition, at β-galactosidase [2], the “Fluorescence emission / release” value is on record as “readily discernible release of 1”.

As for `OC[C@H]1OC(Oc2ccc(COc3ccccc3-c3nc(-c4ccccc4O)nn3-c3ccccc3)cc2)[C@H](O)[C@@H](O)[C@@H]1O` (stereo partly drawn) [3b], the results for the “Relative emission intensity at 480 nm (for 3b at 420 nm)” value in the data set on β-glucosidase (setting [6]) and in the data set on β-glucosidase (setting [7]) were 11% and 1%, respectively. Further, the “Fluorescence emission / release” value in the data set on β-glucosidase is given as “less pronounced emission”.
